pIC50: −log10 of the molar value. Where “and” joins values, the source holds several entries; their conditions need not be identical. Identical values can stand only once.
System: 287954-098-R-J1 tumor spheroid viability
Assay: Anticancer human tumor 287954-098-R-J1 patient-derived Ewing sarcoma cell line growth inhibition
Conditions: spheroids with HUVEC and MSC; for viability, T/C: stronger effect = lower value
Outline: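 Single agents and combinations were tested on spheroids built from tumor cells plus HUVEC and hMSC, at half-log dilutions starting at or near clinical Cmax, else 10 microM; final DMSO 0.25% (v/v).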
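Also: spheroids exposed to compound for 7 days before viability readout.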
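For viability, T/C in this document: luminescent signal taken as surrogate of viable cell content; 100% = DMSO vehicle control viability and lower means growth inhibition.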

With Cn1ncnc1[C@H]1c2n[nH]c(=O)c3cc(F)cc(c23)N[C@@H]1c1ccc(F)cc1 the viability, T/C (compound 0.00949 µM) was 112% and 99.5% and 92.6%, the viability, T/C (compound 0.03 µM) was 101% and 104% and 107% and the viability, T/C (compound 0.0949 µM) was 98.5% and 97% and 105%. The viability, T/C (compound 0.3 µM) was 97.8% and 95.6% and 94.2%, the viability, T/C (compound 0.949 µM) was 2.74% and 25.4% and 16.7% and the viability, T/C (compound 3 µM) was 2.53% and 1.95% and 1.33%. For the same molecule, the pIC50 (curve of compound) was 6.27 and 6.20 and 6.24.

With Cc1sc2c(c1C)C(c1ccc(Cl)cc1)=NC(CC(=O)Nc1ccc(O)cc1)c1nnc(C)n1-2 (configuration not stated) + CC[C@@]1(O)C(=O)OCc2c1cc1n(c2=O)Cc2cc3c(CN(C)C)c(O)ccc3nc2-1 the pIC50 (curve of first compound, second compound 0.003 µM) was 6.26, the pIC50 (curve of first compound, second compound 0.00949 µM) was 6.73 and the pIC50 (curve of first compound, second compound 0.03 µM) was over 8.02. For the same molecule, the pIC50 (curve of first compound, second compound 0.0949 µM) was over 8.02, the pIC50 (curve of first compound, second compound 0.3 µM) was over 8.02 and the viability, T/C (second compound 0.003 µM, first compound 0.00949 µM) was 110%. For the same molecule, the viability, T/C (second compound 0.003 µM, first compound 0.03 µM) was 117%, the viability, T/C (second compound 0.003 µM, first compound 0.0949 µM) was 123% and the viability, T/C (second compound 0.003 µM, first compound 0.3 µM) was 90.1%. For the same molecule, the viability, T/C (second compound 0.003 µM, first compound 0.949 µM) was 15.2%, the viability, T/C (second compound 0.003 µM, first compound 3 µM) was 1.91% and the viability, T/C (second compound 0.00949 µM, first compound 0.00949 µM) was 117%. For the same molecule, the viability, T/C (second compound 0.00949 µM, first compound 0.03 µM) was 112%, the viability, T/C (second compound 0.00949 µM, first compound 0.0949 µM) was 106% and the viability, T/C (second compound 0.00949 µM, first compound 0.3 µM) was 9.5%. It also gave a viability, T/C (second compound 0.00949 µM, first compound 0.949 µM) of 1.8%, a viability, T/C (second compound 0.00949 µM, first compound 3 µM) of 1.47% and a viability, T/C (second compound 0.03 µM, first compound 0.00949 µM) of 2.84%. It also gave a viability, T/C (second compound 0.03 µM, first compound 0.03 µM) of 3%, a viability, T/C (second compound 0.03 µM, first compound 0.0949 µM) of 1.99% and a viability, T/C (second compound 0.03 µM, first compound 0.3 µM) of 1.63%. For the same molecule, the viability, T/C (second compound 0.03 µM, first compound 0.949 µM) was 1.17%, the viability, T/C (second compound 0.03 µM, first compound 3 µM) was 1.04% and the viability, T/C (second compound 0.0949 µM, first compound 0.00949 µM) was 1.98%. The viability, T/C (second compound 0.0949 µM, first compound 0.03 µM) was 2.06%, the viability, T/C (second compound 0.0949 µM, first compound 0.0949 µM) was 1.8% and the viability, T/C (second compound 0.0949 µM, first compound 0.3 µM) was 1.32%. For the same molecule, the viability, T/C (second compound 0.0949 µM, first compound 0.949 µM) was 1.09%, the viability, T/C (second compound 0.0949 µM, first compound 3 µM) was 1.22% and the viability, T/C (second compound 0.3 µM, first compound 0.00949 µM) was 1.94%. The viability, T/C (second compound 0.3 µM, first compound 0.03 µM) was 2.02%, the viability, T/C (second compound 0.3 µM, first compound 0.0949 µM) was 1.68% and the viability, T/C (second compound 0.3 µM, first compound 0.3 µM) was 1.25%. For the same molecule, the viability, T/C (second compound 0.3 µM, first compound 0.949 µM) was 1.2% and the viability, T/C (second compound 0.3 µM, first compound 3 µM) was 1%.

Source: PubChem BioAssay AID1845194 (Molecular Pharmacology Branch, DTP, NCI, 2023)
